From US20110123483A1, “HMGB1 FOR CANCER TREATMENT” (DEUTSCHES KREBSFORSCHUNGSZENTRUM, priority 2009, published 2011) come the findings set out here.

Common to all, as to type: cell-based, human
For assay [1], the system named is U251 MG cells. Kind of assay: ROS measurement by DCF fluorescence and FACS analysis. Particulars: co-treatment with rhHMGB1 (FIG. 3A). The protocol: For measurement of reactive oxygen species (ROS) and mitochondrial membrane potential (MMP) 1.5×10^6 U251 MG cells were seeded in 6 cm plates, treated with 40 nM rhHMGB1 for 24 h and incubated with the fluorescent DiOC6 (3,3′-dihexyloxacarbocyanine iodide, 40 nmol/ll, Sigma Chemical Co., St. Louis, Mo.) or with the fluorescent H2DCF-DA (dichlorodihydrofluorescein diacetate, 10 μM, Invitrogen) for 1 h at 37° C., respectively. The cells were trypsinized and centrifuged at 2,000 rpm for 5 min at 4° C. The supernatant was discarded and the pellet was washed 2× with sterile Dulbecco's PBS containing 0.1% fetal calf serum on ice and again centrifuged at 2,000 rpm for 5 min at 4° C. The pellet was resuspended in 500 μl sterile Dulbecco's PBS on ice. Oxidation of H2DCF to DCF by ROS and DiOC6 accumulation in mitochondria were measured immediately at FL-1 by flow cytometry using a FACScalibur (Beckton Dickinson, Heidelberg, Germany). Cell cycle was determined by measurement of priopidiumiodide (PI)-uptake of the cells according to standard procedures. Briefly, the cells were harvested and washed twice in sterile Dulbecco's PBS on ice, spun down at 2,000 rpm for 5 min at 4° C. and fixed with 70% ethanol for 30 min at 4° C. Contaminating RNA was eliminated by treatment with 100 μg/ml of RNase A, then 50 μg/ml PI was added and DNA content was measured immediately at FI-2. […]
For orientation: In flow cytometry, cells or beads pass a laser one at a time.

For the next assay, the system named is JNK1/2. Kind of assay: Western blot analysis of JNK1/2 phosphorylation. Particulars: NAC, rhHMGB1 40 nM (FIG. 3E). On the procedure: The U251 MG tumor cells were lysed in lysis buffer containing 20 mmol/L Tris-HCl (pH 7.4), 137 mmol/L NaCl, 10% (v/v) glycerine, 1% Triton X-100, 2 mmol/L EDTA, 100 mmol/L phenylmethylsulfonyl fluoride, and protease inhibitors (Complete mini; Roche Molecular Biochemicals). For the detection of phosphoprotein levels, 10 mmol/L NaPPi, 50 mmol/L NaF, and 20 mmol/L NaVO4 were added to the lysis buffer. After 15 min incubation on ice, the lysates were centrifuged at 14,000×g for 10 min. The total protein concentration of the lysates was measured using the Bradford assay (Bio-Rad). Soluble protein (25-100 μg per lane) was separated on 10% to 15% polyacrylamide gels and blotted onto nitrocellulose by standard procedures. […]
In general terms: A western blot detects proteins with antibodies after separation by electrophoresis.

The subject of assay [2] is U251MG glioblastoma cells. Kind of assay: Cytotoxicity assay, cell survival by crystal violet staining. The protocol:
20,000 U251MG glioblastoma cells or human astrocytic cells (ScienCell) were plated into 96-well plates. After 24 h cells were treated with rhHMGB1 (Sigma Aldrich) or rat recombinant HMGB1 (generously provided by Angelika Bierhaus, Heidelberg, Germany), and TRAIL (for 24 h) or Temozolomide (for 72 h) alone or in combination, respectively. […] Cell proliferation was assessed by seeding 50,000 U251 MG cells in 6 cm culture plates and treatment with rhHMGB1, followed by counting the cells in a Neubauer chamber at day 0, 2, 4 and 5.

Another assay concerns pseudo rho zero cells. Kind of assay: Survival of pseudo rho zero cells by crystal violet analysis. Particulars: TRAIL 100 ng/ml, 24 h (FIG. 5). On the procedure: U251 glioblastoma cells and non-immortalized human astrocytic cells (ScienCell, USA) were maintained in DMEM (Life Technologies) containing 10% FCS, 4.5 g/L glucose, glutamine, 110 mg/L sodium pyruvate, and 1% penicillin-streptomycin (Life Technologies) and in astrocyte medium (ScienCell) containing 2% FBS (fetal bovine serum) and 1% penicillin-streptomycin at 37° C. and 5% CO2. For the generation of pseudo rho zero cells (0.0), U251 MG cells were treated with low dose (250 ng/ml) ethidiumbromide for 3 months. The cells were supplemented with DMEM (10% FCS, 1% P/S) containing 50 μg/ml L-pyruvate and 5 mg/ml uridine (King and Attardi, 1989).
20,000 U251MG glioblastoma cells or human astrocytic cells (ScienCell) were plated into 96-well plates. After 24 h cells were treated with rhHMGB1 (Sigma Aldrich) or rat recombinant HMGB1 (generously provided by Angelika Bierhaus, Heidelberg, Germany), and TRAIL (for 24 h) or Temozolomide (for 72 h) alone or in combination, respectively. Cell survival was measured by crystal violet staining as described previously (Gdynia et al., 2007). Cell proliferation was assessed by seeding 50,000 U251 MG cells in 6 cm culture plates and treatment with rhHMGB1, followed by counting the cells in a Neubauer chamber at day 0, 2, 4 and 5.

For assay [3], the system named is U251 MG cells. The assay is described as follows: Subcellular fractionation and Western blot: cytochrome c release, caspase 3 cleavage. The protocol: The U251 MG tumor cells were lysed in lysis buffer containing 20 mmol/L Tris-HCl (pH 7.4), 137 mmol/L NaCl, 10% (v/v) glycerine, 1% Triton X-100, 2 mmol/L EDTA, 100 mmol/L phenylmethylsulfonyl fluoride, and protease inhibitors (Complete mini; Roche Molecular Biochemicals). For the detection of phosphoprotein levels, 10 mmol/L NaPPi, 50 mmol/L NaF, and 20 mmol/L NaVO4 were added to the lysis buffer. After 15 min incubation on ice, the lysates were centrifuged at 14,000×g for 10 min. The total protein concentration of the lysates was measured using the Bradford assay (Bio-Rad). Soluble protein (25-100 μg per lane) was separated on 10% to 15% polyacrylamide gels and blotted onto nitrocellulose by standard procedures. The membranes were washed, incubated with primary antibody as indicated: mouse anti-human caspase-3 (1:500, Imgenex, San Diego, Calif.); polyclonal rabbit anti-human phosphorylated p44/42 mitogen-activated protein kinase and polyclonal rabbit anti-human phosphorylated stress-activated protein kinase/JNK (1:1,000, Cell Signaling Technology, Inc.); polyclonal anti-rabbit JNK 54/46 (1:1,000, Cell Signaling Technology, Inc.); polyclonal rabbit anti-human IkBalpha (1:500, Santa Cruz Biotechnology, Inc.); mouse monoclonal anti-human BNIP3 (1:10,000, R&D Systems, Inc.); mouse monoclonal anti-human phosphorylated-histone H2A.X (Upstate, Inc.); mouse monoclonal anti-human cytochrome c (1:100, BD Biosciences Pharmingen GmbH, Heidelberg, Germany); mouse anti-human cytochrome c oxidase complex IV (1:100, Molecular Probes, Invitrogen, Karlsruhe, Germany); polyclonal rabbit antimalondialdehyde (1:250, Calbiochem, Merck, Darmstadt, Germany) and mouse monoclonal antibodies to β-tubulin or β-actin (1:3,000, Sigma Chemical Co., St. Louis, Mo.), washed, and incubated with the appropriate secondary antibody (1:3,000; horseradish peroxidase-conjugated, Bio-Rad). Bound antibodies were visualized using an enhanced chemiluminescence detection system (GE-Healthcare, Uppsala, Sweden).
Enrichment of mitochondrial fractions was performed using the ApoAlert Cell Fractionation Kit (Clontech, Mountain View, Calif.) as described previously (Gdynia et al., 2008). Briefly, after centrifugation and several washing steps, the cell pellet was resuspended in ice-cold 1× Fractionation Buffer Mix containing protease inhibitors (Complete mini; Roche Molecular Biochemicals, Indianapolis, Ind.) and 1 mM 1,4-Dithio-DL-threitol solution (DTT). After 10 min incubation on ice, cells were homogenized with a dounce tissue grinder. Efficiency of homogenization was controlled by microscopy. The homogenate was centrifuged at 700×g for 10 min at 4° C. and the resulting supernatant at 10,000×g for 25 min at 4° C. […]

As for `CC(=O)N[C@@H](CS)C(=O)O` [NAC, reference compound], the “effect on rhHMGB1-induced ROS generation” value in the assay on U251 MG cells [1] is recorded as “partially prevented”. The “effect on JNK activation after rhHMGB1 treatment” value in the assay with JNK1/2 is recorded as “prevented the activation of JNK”. The “effect on rhHMGB1-induced cell death” value in assay [2] (NAC 1 mM, 48 h co-treatment with rhHMGB1 (FIG. 3B)) is “substantially inhibited”.
As for `O=c1ccn([C@@H]2O[C@H](CO)[C@@H](O)[C@H]2O)c(=O)[nH]1` [uridine, reference compound], the “effect on rhHMGB1-induced cell death” value in assay [2] (uridine 5 mg/ml in culture medium, 48 h (FIG. 3F)) was “substantially inhibited”.

B1: TRAIL: death ligand TRAIL, positive control for cytotoxicity (protein, UniProt P50591 1-281, looked up)
Tumor necrosis factor ligand …: MAMMEVQGGPSLGQTCVLIVIFTVLLQSLCVAVTYVYFTNELKQMQDKYSKSGIACFLKEDDSYWDPNDEESMNSPCWQVKWQLRQLVRKMILRTSEETISTVQEKQQNISPLVRERGPQRVAAHITGTRGRSNTLSSPNSKNEKALGRKINSWESSRSGHSFLSNLHLRNGELVIHEKGFYYIYSQTYFRFQEEIKENTKNDKQMVQYIYKYTSYPDPILLMKSARNSCWSKDAEYGLYSIYQGGIFELKENDRIFVSVTNEHLIDMDHEASFFGAFLVG
For B1, the “apoptotic signalling in pseudo rho zero cells” value with pseudo rho zero cells is listed as “still intact”. The “release of cytochrome c into the cytosolic fraction” value with U251 MG cells [3] (TRAIL 200 ng/ml, 3 h (FIG. 6)) is listed as “detected”. In addition, the “cleavage of caspase 3” value in the assay with U251 MG cells [3] (TRAIL treatment (FIG. 6)) was “observed”.
